Laboratory results as given in US6451814B1, “Heterocyclic β-3 adrenergic receptor agonists” (Wyeth, priority 2000, dated 2002).
Structures can show the parent of a compound that is named as a salt.

Compound	melting point [°C]
CCN(CC)C(=O)N1CCC(Nc2ccc(CCNC[C@H](O)COc3ccc(O)cc3)cc2)CC1 [Example 14, 4-(4-{2-[(2S)-2-Hydroxy-3-(4-hydroxy-phenoxy)-propylamino]-ethyl}-phenylamino)-piperidine-1-carboxylic Acid Diethylamide]	61 to 65
O=C(NCc1ccc(F)cc1)N1CCC(Nc2ccc(CCNC[C@H](O)COc3ccc(O)cc3)cc2)CC1 (as salt: salt) [Example 1, 4-(4-{2-[(2S)-2-Hydroxy-3-(4-hydroxy-phenoxy)-propylamino]-ethyl}-phenylamino)-piperidine-1-carboxylic Acid 4-fluoro-benzylamide]	89 to 91
CCCCCCNC(=O)Nc1ccc(S(=O)(=O)N2CCC(Nc3ccc(CCNC[C@H](O)COc4ccc(O)cc4)cc3)CC2)cc1 (as salt: hydrochloride) [Example 108, 1-Hexyl-3-{4-[4-(4-{2-[(2S)-2-hydroxy-3-(4-hydroxy-phenoxy)-propylamino]-ethyl}-phenylamino)-piperidine-1-sulfonyl]-phenyl}-urea]	165 to 168
CC(=O)Nc1ccc(S(=O)(=O)N2CCC(Nc3ccc(CCNC[C@H](O)COc4ccc(O)cc4)cc3)CC2)cc1 (as salt: salt) [Example 114, N-{4-[4-(4-{2-[(2S)-2-Hydroxy-3-(4-hydroxy-phenoxy)-propylamino]-ethyl}-phenylamino)-piperidine-1-sulfonyl]-phenyl}-acetamide]	98 to 104
CCCCCCCCNC(=O)N1CCC(N(C(C)=O)c2ccc(CCNC[C@H](O)COc3ccc(O)cc3)cc2)CC1 (as salt: salt) [Example 8, 4-[Acetyl-(4-{2-[(2S)-2-hydroxy-3-(4-hydroxy-phenoxy)-propylamino]-ethyl}-phenyl)-amino]-piperidine-1-carboxylic Acid Octylamide]	71 to 74
CCCCCCCCNC(=O)N1CCC(Oc2ccc(CCNC[C@H](O)COc3ccc(O)cc3)cc2)CC1 (as salt: salt) [Example 54, 4-[4-(2-{[(2S)-2-Hydroxy-3-(4-hydroxyphenoxy)propyl]amino}ethyl)phenoxy]-N-octyl-1-piperidinecarboxamide]	153 to 155
CS(=O)(=O)Nc1cc([C@@H](O)CNCCc2ccc(NC3CCN(c4nc(-c5ccccc5)cs4)CC3)cc2)ccc1O (as salt: salt) [Example 118, (R)-N-{2-Hydroxy-5-[1-hydroxy-2-(2-{4-[1-(4-phenyl-thiazol-2-yl)-piperidin-4-ylamino]-phenyl}-ethylamino)-ethyl]-phenyl}-methanesulfonamide]	142 to 145
Cc1ccsc1C(=O)N1CCC(Nc2ccc(CCNC[C@H](O)COc3ccc(O)cc3)cc2)CC1 (as salt: salt) [Example 100, [4-(4-{2-[(2S)-2-Hydroxy-3-(4-hydroxy-phenoxy)-propylamino]-ethyl}-phenylamino)-piperidin-1-yl]-(3-methyl-thiophen-2-yl)-methanone]	88 to 90
Cc1ccsc1C(=O)N1CCC(Nc2ccc(CCNC[C@H](O)COc3cccc4[nH]c(=O)[nH]c34)cc2)CC1 (as salt: salt) [Example 101, 4-[(2S)-2-Hydroxy-3-(2-{4-[1-(3-methyl-thiophene-2-carbonyl)-piperidin-4-ylamino]-phenyl}-ethylamino)-propoxy]-1,3-dihydro-benzoimidazol-2-one]	128 to 130
CCCCCCCCNC(=O)N1CCC(Nc2ccc(CCNC[C@H](O)COc3ccc(O)c(NS(C)(=O)=O)c3)cc2)CC1 (as salt: salt) [Example 66, 4-(4-{2-[(2S)-2-Hydroxy-3-(4-hydroxy-3-methanesulfonylamino-phenoxy)-propylamino]-ethyl}-phenylamino)-piperidine-1-carboxylic Acidoctylamide]	115 to 117
CCCCCCCCNC(=O)N1CCC(C(=O)N2CCC(Nc3ccc(CCNC[C@H](O)COc4ccc(O)cc4)cc3)CC2)CC1 (as salt: salt) [Example 92, 4-[4-(4-{2-[(2S)-2-Hydroxy-3-(4-hydroxy-phenoxy)-propylamino]-ethyl}-phenylamino)-piperidine-1-carbonyl]-piperidine-1-carboxylic Acidoctylamide]	88 to 91
COc1cccc(CCNC(=O)N2CCC(Nc3ccc(CCNC[C@H](O)COc4ccc(O)cc4)cc3)CC2)c1 (as salt: salt) [Example 6, 4-(4-{2-[(2S)-2-Hydroxy-3-(4-hydroxy-phenoxy)-propylamino]-ethyl}-phenylamino)-piperidine-1-carboxylic Acid [2-(3-methoxy-phenyl)-ethyl]-amide]	103 to 108
CS(=O)(=O)Nc1cc([C@@H](O)CNCCc2ccc(NC3CCN(C(=O)c4ccc(C(=O)O)cc4)CC3)cc2)ccc1O (as salt: salt) [Example 105, 4-[4-(4-{2-[(2R)-2-Hydroxy-2-(4-hydroxy-3-methanesulfonylamino-phenyl)-ethylamino]-ethyl}-phenylamino)-piperidine-1-carbonyl]-benzoic Acid]	> 200
CCCCCCCCNC(=O)N1CCC(Nc2ccc(CCNC[C@H](O)c3cccc(Cl)c3)cc2)CC1 (as salt: salt) [Example 36, 4-(4-{2-[(2R)-2-(3-Chloro-phenyl)-2-hydroxy-ethylamino]-ethyl}-phenylamino)-piperidine-1-carboxylic Acid Octylamide]	168 to 171
Cc1ccc(S(=O)(=O)N2CCC(Nc3ccc(CCNC[C@H](O)COc4ccc(O)cc4)cc3)CC2)cc1 (as salt: salt) [Example 112, 4-[(2S)-2-Hydroxy-3-(2-{4-[1-(toluene-4-sulfonyl)-piperidin-4-ylamino]-phenyl}-ethylamino)-propoxy]-phenol]	89 to 92
COc1c(C(=O)N2CCC(Nc3ccc(CCNC[C@H](O)COc4ccc(O)cc4)cc3)CC2)sc2ccccc12 (as salt: salt) [Example 97, [4-(4-{2-[(2S)-2-Hydroxy-3-(4-hydroxy-phenoxy)-propylamino]-ethyl}-phenylamino)-piperidin-1-yl]-(3-methoxy-benzo[b]thiophen-2-yl)-methanone]	84 to 86
CCCCCCCCNC(=O)N1CCC(Nc2ccc(CCNC[C@H](O)COc3cccc(NC(C)=O)c3)cc2)CC1 [Example 63, 4-(4-{2-[(2S)-3-(3-Acetylamino-phenoxy)-2-hydroxy-propylamino]-ethyl}-phenylamino)-piperidine-1-carboxylic Acid Octylamide]	73 to 74
CCOC(=O)C1CCCN(C(=O)N2CCC(Nc3ccc(CCNC[C@H](O)c4ccc(O)c(NS(C)(=O)=O)c4)cc3)CC2)C1 (stereo partly drawn) (as salt: salt) [Example 78, 1-[[4-[[4-[2-[[(2R)-2-Hydroxy-2-[4-hydroxy-3-[(methylsulfonyl)amino]phenyl]ethyl]amino]ethyl]phenyl]amino]-1-piperidinyl]carbonyl]-3-piperidine Carboxylic Acid, Ethyl Ester]	106 to 108
O=C(c1cc2cc(Br)ccc2[nH]1)N1CCC(Nc2ccc(CCNC[C@H](O)COc3ccc(O)cc3)cc2)CC1 (as salt: salt) [Example 96, (5-Bromo-1H-indol-2-yl)-[4-(4-{2-[(2S)-2-hydroxy-3-(4-hydroxy-phenoxy)-propylamino]-ethyl}-phenylamino)-piperidin-1-yl]-methanone]	114 to 116
